We go through eleven compounds from patent publication US10098902B2, “Arginase inhibitors as therapeutics” (Mars, Incorporated, priority 2010, dated 2018).

The test system of assay [1] is animals undergoing experimental autoimmune encephalomyelitis (EAE). To be noted: mouse, in vivo; cited from earlier work.
In assay [2] the target is human arginase II (ARG II) (Homo sapiens (Human), UniProt P78540). The assay can be described thus: Inhibition of arginase II, spectrophotometric urea assay at 530 nm. The class given is biochemical. As to conditions: potency rank 1-5; pH 7.4, 37° C., 60 minutes. As for the experimental part: (§1) Inhibition of arginase I (ARG I) and arginase II (ARG II) by Formula I or Formula II compounds is followed spectrophotometrically at 530 nm. The compound to be tested was dissolved in DMSO at an initial concentration 50-fold greater than its final concentration in the cuvette. 10 μl of the stock solution was diluted in 90 μl of the assay buffer that comprises 0.1M sodium phosphate buffer containing 130 mM NaCl, pH 7.4, to which is added ovalbumin (OVA) at a concentration of 1 mg/ml. Solutions of arginase I and II were prepared in 100 mM sodium phosphate buffer, pH 7.4 containing 1 mg/ml of OVA to give an arginase stock solution at a final concentration of 100 ng/ml.
(§2) To each well of a 96-well microtiter plate was added 40 μl of enzyme, 10 μl of an inventive compound and 10 μl of enzyme substrate (L-arginine+manganese sulfate). For wells that were used as positive controls, only the enzyme and its substrate were added, while wells used as negative controls contained only manganese sulfate.
(§3) After incubating the microtiter plate at 37° C. for 60 minutes, 150 μl of a urea reagent obtained by combining equal proportions (1:1) of reagents A and B is added to each well of the microtiter plate to stop the reaction. The urea reagent is made just before use by combining Reagent A (10 mM o-phthaldialdehyde, and 0.4% polyoxyethylene (23) lauryl ether (w/v) in 1.8 M sulfuric acid) with Reagent B (1.3 mM primaquine diphosphate, 0.4% polyoxyethylene (23) lauryl ether (w/v), 130 mM boric acid in 3.6 mM sulfuric acid). After quenching the reaction mixture, the microtiter plate is allowed to stand for an additional 10 minutes at room temperature to allow the color to develop. The inhibition of arginase was computed by measuring the optical density (OD) of the reaction mixture at 530 nm and normalizing the OD value to percent inhibition observed in the control. The normalized OD is then used to generate a dose-response curve by plotting the normalized OD values against log [concentration] and using regression analysis to compute the IC50 values.

For the next assay, the target named is human arginase I (ARG I) (Homo sapiens (Human), UniProt P05089). The assay is described as follows: Inhibition of arginase I, spectrophotometric urea assay at 530 nm. The class given is biochemical. To be noted: potency rank 1-5; pH 7.4, 37° C., 60 minutes. As for the experimental part:
as §1, §2, §3

The next assay concerns bacterial arginase. To be noted: cited from earlier work.
In assay [3] the test system is central airways in the murine chronic model. As to conditions: murine chronic asthma model; cited from earlier work.
The subject of assay [4] is spontaneously hypertensive animals. As to conditions: cited from earlier work.

Sequence of human arginase II (ARG II) (P78540 23-354): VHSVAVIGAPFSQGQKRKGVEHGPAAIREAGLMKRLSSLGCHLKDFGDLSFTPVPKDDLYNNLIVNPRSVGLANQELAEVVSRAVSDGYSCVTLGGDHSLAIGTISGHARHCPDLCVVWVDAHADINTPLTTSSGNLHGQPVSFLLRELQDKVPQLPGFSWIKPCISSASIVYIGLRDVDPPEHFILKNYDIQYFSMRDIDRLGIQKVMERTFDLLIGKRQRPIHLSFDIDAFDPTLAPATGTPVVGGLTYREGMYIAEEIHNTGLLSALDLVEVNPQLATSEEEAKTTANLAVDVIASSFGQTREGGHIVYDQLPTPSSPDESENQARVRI
Sequence of human arginase I (ARG I) (P05089 whole entry): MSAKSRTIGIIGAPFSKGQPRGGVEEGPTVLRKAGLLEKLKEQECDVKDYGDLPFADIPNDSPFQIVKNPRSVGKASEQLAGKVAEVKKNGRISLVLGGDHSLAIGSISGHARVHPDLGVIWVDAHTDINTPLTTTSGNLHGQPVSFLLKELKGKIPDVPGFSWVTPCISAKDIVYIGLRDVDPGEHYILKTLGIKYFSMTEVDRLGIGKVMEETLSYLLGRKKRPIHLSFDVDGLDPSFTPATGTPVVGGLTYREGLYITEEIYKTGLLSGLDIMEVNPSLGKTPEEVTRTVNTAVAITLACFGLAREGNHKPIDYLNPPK

Regarding `NC(CCCCB(O)O)C(=O)O` (stereo not shown) [ABH, amino-6-boronohexanoic acid], the “severity of EAE versus control animals” value in assay [1] is recorded as “much milder form of EAE”. The term IC50 denotes the concentration that inhibits the measured activity by half. Read a low IC50 as inhibition by little substance. For `N[C@@]1(C(=O)O)CN(CCNc2ccc(-c3ccccc3)cc2)C[C@@H]1CCCB(O)O` [Example 52, (3R,4S)-3-amino-1-(2-(biphenyl-4-ylamino)ethyl)-4-(3-boronopropyl)pyrrolidine-3-carboxylic acid], the IC50 (in assay [2]; at human arginase I (ARG I)) was 0.1 to 250 nM in each case. For `N[C@@]1(C(=O)O)CN(CC2Cc3ccc(C(F)(F)F)cc3CN2)C[C@@H]1CCCB(O)O` (stereo partly drawn) [Example 55, (3R,4S)-3-amino-4-(3-boronopropyl)-1-((7-(trifluoromethyl)-1,2,3,4-tetrahydroisoquinolin-3-yl)methyl)pyrrolidine-3-carboxylic acid], the concentration for half-maximal inhibition (IC50) (in assay [2]; at human arginase I (ARG I)) was 0.1 to 250 nM each time. For `N[C@@]1(C(=O)O)CN(C(=O)C2Cc3ccc(Cl)cc3CN2)C[C@@H]1CCCB(O)O` (stereo partly drawn) [Example 56, (3R,4S)-3-amino-4-(3-boronopropyl)-1-(7-chloro-1,2,3,4-tetrahydroisoquinoline-3-carbonyl)pyrrolidine-3-carboxylic acid], the IC50 (in assay [2]; on human arginase I (ARG I)) was 0.1 to 250 nM in each case.

For the compound `CNC(Cc1ccccc1)C(=O)N1C[C@H](CCCB(O)O)[C@](N)(C(=O)O)C1` (stereo partly drawn) [Example 58, (3R,4S)-3-amino-4-(3-boronopropyl)-1-(2-(methylamino)-3-phenylpropanoyl)pyrrolidine-3-carboxylic acid], the IC50 (in assay [2]; against human arginase I (ARG I)) was 1000 to 2000 nM throughout.

On to `N[C@@]1(C(=O)O)CN(CC2Cc3c(Cl)cc(Cl)cc3CN2)C[C@@H]1CCCB(O)O` (stereo partly drawn) [Example 59, (3R,4S)-3-amino-4-(3-boronopropyl)-1-((5,7-dichloro-1,2,3,4-tetrahydroisoquinolin-3-yl)methyl)pyrrolidine-3-carboxylic acid], for which the IC50 (in assay [2]; against human arginase I (ARG I)) was 0.1 to 250 nM throughout. Take `N[C@@]1(C(=O)O)CN(C(=O)CNCc2ccccc2)C[C@@H]1CCCB(O)O` [Example 60, (3R,4S)-3-amino-1-(2-(benzylamino)acetyl)-4-(3-boronopropyl)pyrrolidine-3-carboxylic acid]: the concentration for half-maximal inhibition (IC50) lay within 1000 to 2000 nM in assay [2] and 251 to 1000 nM on human arginase I (ARG I). On the same counts, the results for `N[C@H]1C[C@H](CCCB(O)O)[C@](N)(C(=O)O)C1` [Example 61, (1S,2S,4S)-1,4-diamino-2-(3-boronopropyl)cyclopentanecarboxylic acid] are 251 to 1000 nM and 251 to 1000 nM. Consider `NC(=NCCC[C@H](N)C(=O)O)NO` [NOHA], for which, in the assay on bacterial arginase, the “CD3 expression on T-cells” value is reported as “reestablished CD3 expression on T-cells” and the “production of NO by macrophages” value is “enhanced production of NO by macrophages”. For `N[C@@H](CSCCB(O)O)C(=O)O` [S-(2-boronoethyl)-L-cysteine], in assay [3], the “methacholine induced responsiveness of the central airways” value is “attenuated”. As for `N=C(NO)NCC[C@H](N)C(=O)O` [nor-NOHA, N^ω-hydroxy-nor-L-arginine], in assay [4], the “effect on blood pressure” value is reported as “lowered blood pressure”.
